Patent US20150202179A1, “FATTY ACID DERIVATIVES FOR USE IN A METHOD OF TREATING DEPRESSION AND ASSOCIATED CONDITIONS” (YISSUM RESEARCH DEVELOPMENT COMPANY OF THE HEBREW …, priority 2012, published 2015)

Legend:
[1] = system: serotonin (5HT) levels; experiment: Serotonin (5HT) determination in brain tissue by HPLC with electrochemical detection; format: in vivo, mice; settings: for 5HT: ng/g wet tissue +/− SEM; for 5HT levels in the hippocampus vs. control / 5HT levels in the hypothalamus vs. control: result in words
Protocol: (§1) Solution of DHBA as internal standard in the concentration of: 1 μg/ml in 0.1M perchloric acid, were prepared. Standard solutions of NE and 5HT in the concentration of 1-0.1 μg/ml in 0.1M perchloric acid were prepared.
(§2) Tissues (hypothalamus and hippocampus) obtained from 6-8 mice were dissected on ice surface and kept at −80 C. Hypothalamus (HT) or hippocampus (HC) from 1 mice were weighted (weight of HT −10-20 mg, HC 30-40 mg) and placed in eppendorf micro-centrifuge tube, 1.5 ml. To each tube was added 120-160 μl of ice cold solution of Perchloric acid and DHBA, homogenized in ice bath on Sonics vibra cell, 3×20 sec., 0.4 watts and centrifuged at 14,000×g at 4° C. 10 min. Supernatant gained was stored in ice before analysis.
(§3) The HPLC system consisted of Jasco PU-980 pump, Jasco AS-950-10 autosampler cooled at 4° C., H3 ODS-125A 3 μm 125 mm×4.6 mm i.d. analytical column (Hichrom, UK) were used. Electrochemical detector Coulochem ESA 5100A with analytical cell model 5011 was used for control detector voltage and record the current. Working electrode was set at potential +350 mV. Control and data collection/processing were handled through Borwin chromatography software.
(§4) The mobile phase composition: A stock buffer was prepared as follows: 20 mM sodium dihydrogenorthophosphate, EDTA 3 mg/l, 1-heptanesulfonic acid 1 g/l were dissolved in 1 liter deionized distilled water and buffered to pH 3.7 using concentrated phosphoric acid. To prepare the mobile phase buffer was mixed with acetonitrile (Baker HPLC analyzed) in the ratio 85:15 (v/v), filtered through a 0.2 μm membrane filter and degassed under vacuum after mixing. Mobile phase flow rate 1 ml/min. Injection volume 20 μl, retention time for DHBA 4.2 min., norepinephrine—3.1 min., 5HT 8.6 min. For calibration curve 1 ug/ml solution of DHBA together with 1.0-0.1 μg/ml solutions of 5HT and NE were used. The ratio between 5HT or NE and DHBA used to calculate the level of 5HT and NE in the sample. Date are given in ng/g wet tissue +/−SEM.

[2] = system: Norepinephrine (NE) levels; experiment: Norepinephrine (NE) determination in brain tissue by HPLC with electrochemical detection; format: in vivo, mice; settings: for NE: ng/g wet tissue +/− SEM; for norepinephrine levels in the hippocampus vs. control / norepinephrine levels in the hypothalamus vs. control: result in words
Protocol: as §1, §2, §3, §4

[3] = Weight and food consumption in Sabra mice; format: in vivo
Protocol: 140 Female Sabra Mice 12 weeks old are divided to […] 10 mice in each group with equal weight. Mice are administered I.P. with either saline or 1 mg/kg Fluoxetine (PROZAC), compound 1, 4, 5, 7, 10, 11, 12, 13, 14, 15, 19, 26 for a 4 weeks period. On day 30 and on, mice were tested by the following behavioral tests. […]

[4] = Weight and food consumption in OB/OB mice which lack the leptin gene; format: in vivo
Source text: (§5) Thus the compounds of the invention can be used to treat conditions that are mediated by the enhancement of leptin levels. In obesity there is high leptin level however the leptin receptors are not responding. High CNS leptin level has anti-depression effect however, if there is tolerance there is no anti depression effect.

[5] = Body weight of C57BL/6 mice; format: in vivo
Source text: as §5

[6] = system: POMC protein; experiment: POMC protein expression by western blot; format: in vivo, BALB/c mice
Protocol: (§6) 50, 2 month old female BALB/c mice, 10 mice per group, on ad libitum diet were separated (each mouse in a different cage) for 9 days (Separation Stress, a model for depression). On the 7, 8, 9, 34-40 days mice were administered with either vehicle or compounds x, 12 and 15 (1 mg/kg i.p.) or imipramine 10 mg/kg (antidepressant). POMC protein was monitored by western blot.

[7] = system: P-AMPK protein; experiment: P-AMPK protein levels by western blot; format: in vivo, BALB/c mice
Protocol: as §6, with “P-AMPK” for “POMC”, “blot. […] (p<0.05a).” for “blot.”

[8] = system: p-SAPK/JNK; experiment: p-SAPK/JNK levels in the hypothalamus; format: in vivo, BALB/c mice; settings: FIG. 16
Source text: 50, 2 month old female BALB/c mice, 10 mice per group, on ad libitum diet were separated (each mouse in a different cage) for 9 days (Separation Stress, a model for depression).

[9] = Open Field Test, compound X dose study; format: in vivo, BALB/c mice; settings: 10 mg/kg i.p.; day 25; better than the other concentrations
Protocol: 50, 2 month old BALB/c mice, 10 mice per group, on ad libitum diet were divided to 5 experimental groups with equal weight. On the 2, 3, 4, 5, 9, 11, 16, 18, 23, 25, 29, 31 days mice were administered with either vehicle or compound x 0.1, 1, 10 mg/kg i.p. or imipramine 10 mg/kg Open Field Test was evaluated on day 25. The more time they spent on the […] the less depressed.

CCCCCCCC/C=C\CCCCCCCC(=O)N[C@H](CO)C(C)C [Compound 1, oleoyl-L-valinol amide]
5HT ([1]; Hippocampus): 342.2 ± 33 ng/g
5HT ([1]; Hypothalamus): 854.4 ± 16.8 ng/g
5HT levels in the hippocampus vs. control [1]: significantly enhanced
5HT levels in the hippocampus vs. control ([1]; listed as X): increased significantly
5HT levels in the hypothalamus vs. control [1]: significantly enhanced
5HT levels in the hypothalamus vs. control ([1]; listed as X): increased significantly
NE ([2]; Hippocampus): 283.28 ± 24 ng/g
NE ([2]; Hypothalamus): 1090 ± 10.4 ng/g
norepinephrine levels in the hippocampus vs. control [2]: significantly enhanced
norepinephrine levels in the hippocampus vs. control ([2]; listed as X): increase significantly
norepinephrine levels in the hypothalamus vs. control [2]: significantly enhanced
norepinephrine levels in the hypothalamus vs. control ([2]; listed as X): increased significantly
food consumption [3]: significant decrease
weight (weight loss) [3]: significant decrease
weight (weight loss) ([3]; listed as OVA): decreased body weight
weight (weight loss) ([3]; listed as X): significant weight loss
food consumption [4]: did not change
weight (weight loss) [4]: did not change
weight (weight loss) ([4]; listed as OVA): not body weight
weight (weight loss) ([4]; listed as X): do not produce weight loss
body weight [5]: decreased body weight
POMC protein expression in the hippocampus ([6]; hippocampus, FIG. 12): increased significantly
POMC protein expression in the hypothalamus ([6]; hypothalamus, FIG. 11): increased significantly
P-AMPK protein in the hippocampus ([7]; hippocampus, FIG. 14A): significant increase
P-AMPK protein in the hypothalamus ([7]; hypothalamus, FIG. 14B): significant increase
p-SAPK/JNK levels in the hypothalamus [8]: significant decrease
motor activity in Open Field Test [9]: improved motor activity like the impramine
